We go through one compound from publication PMC6538953, “Metal Ions Activate the Human Taste Receptor TAS2R7” (Chemical Senses, 2019).

For this assay, the target named is T1, human TAS2R7 E264^7.32L mutant (Homo sapiens, UniProt Q9NYW3, E264L).
T1 construct: signal peptide: first 45 amino acid residues of rat somatostatin receptor 3 (N); expressed in transfected cells; host or cells: HEK293 PEAKrapid (ATCC CRL-2828), transient, co-transfected with Gα16-gust44
T1 sequence (Q9NYW3 1-318 E264L): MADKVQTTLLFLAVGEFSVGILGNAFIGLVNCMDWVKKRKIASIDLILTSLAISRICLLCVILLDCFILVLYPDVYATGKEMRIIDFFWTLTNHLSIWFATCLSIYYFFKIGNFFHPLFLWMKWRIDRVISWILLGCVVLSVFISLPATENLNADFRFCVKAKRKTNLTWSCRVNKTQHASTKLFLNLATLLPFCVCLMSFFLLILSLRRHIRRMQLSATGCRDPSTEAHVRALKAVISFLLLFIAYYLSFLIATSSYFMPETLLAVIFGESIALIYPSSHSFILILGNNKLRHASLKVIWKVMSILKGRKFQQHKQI
The assay can be described thus: Calcium mobilization assay, TAS2R7 mutant E264L. Type of assay: cell-based. Conditions: 20 mM metal ions except 0.16 mM Al2(SO4)3; cromolyn 10 mM; Figure 6B. The text has this:
The coding sequences of human TAS2Rs were amplified from human genomic DNA, then subcloned into pcDNA3.1(+) vector, with the herpes simplex virus glycoprotein D epitope (HSV) at the C-terminal and a signal peptide consisting of the first 45 amino acid residues of the rat somatostatin receptor 3 at the N-terminal, essentially as described previously ([Bufe et al. 2002]). Point mutations in human TAS2R7 (NCBI Reference Sequence: NP_076408.1) were constructed by site-directed mutagenesis. All the constructs were confirmed by Sanger sequencing.
Human embryonic kidney 293 (PEAKrapid, ATCC # CRL-2828) cells were cultured in Opti-MEM medium with 4% fetal bovine serum. One day before transfection, cells were seeded on a 96-well plate at a density of 25 000 per well. Cells were then transiently transfected with a TAS2R construct (0.1 µg/well) along with a G protein Gα16-gust44 (0.1 µg/well) construct by Lipofectamine 2000 (0.5 µl/well). For controls, only Gα16-gust44 was used (mock transfection). Twenty-four hours after transfection, cells were washed with HBSS including 10 mM HEPES and loaded with Fluo-4 in the dark for 1 h. After incubation, cells were washed 2 times with HBSS (including 10 mM HEPES), incubated in the dark for another 30 min, and then washed with assay solution once more before running the assay using a FlexStation III reader. Relative fluorescence units (excitation at 494 nm, emission at 516 nm, and auto cutoff at 515 nm) were read every 2 s for 2 min. Calcium mobilization traces were recorded.
Calcium mobilization traces were raw data obtained from single wells. Changes in fluorescence (ΔF) were calculated as the peak fluorescence minus baseline fluorescence ([Lei et al. 2015]). The calcium mobilization was quantified as the percentage of change (ΔF) relative to baseline (F). […] Calcium mobilization traces and bar graphs along with dose-dependent plots were all generated by GraphPad Prism 7. Analysis of variance with Dunnett’s multiple comparisons test was used for statistical analysis. *P < 0.05. […]
(In general: Calcium flux is commonly read through the fluorescence of an indicator in the cells.)

Structures are written as SMILES.

For the compound `O=C(O)c1cc(=O)c2c(OCC(O)COc3cccc4oc(C(=O)O)cc(=O)c34)cccc2o1` [cromolyn, reference compound], the “Response of E264L mutant receptor” value is reported as “reduced”.
